Experiment [1] addresses T1, Serine/threonine-protein phosphatase (Candida dubliniensis (strain CD36 / CBS 7987 / NCPF 3949 / NRRLY-17841) (Yeast), UniProt B9W6M3).
T1 sequence (B9W6M3 whole entry): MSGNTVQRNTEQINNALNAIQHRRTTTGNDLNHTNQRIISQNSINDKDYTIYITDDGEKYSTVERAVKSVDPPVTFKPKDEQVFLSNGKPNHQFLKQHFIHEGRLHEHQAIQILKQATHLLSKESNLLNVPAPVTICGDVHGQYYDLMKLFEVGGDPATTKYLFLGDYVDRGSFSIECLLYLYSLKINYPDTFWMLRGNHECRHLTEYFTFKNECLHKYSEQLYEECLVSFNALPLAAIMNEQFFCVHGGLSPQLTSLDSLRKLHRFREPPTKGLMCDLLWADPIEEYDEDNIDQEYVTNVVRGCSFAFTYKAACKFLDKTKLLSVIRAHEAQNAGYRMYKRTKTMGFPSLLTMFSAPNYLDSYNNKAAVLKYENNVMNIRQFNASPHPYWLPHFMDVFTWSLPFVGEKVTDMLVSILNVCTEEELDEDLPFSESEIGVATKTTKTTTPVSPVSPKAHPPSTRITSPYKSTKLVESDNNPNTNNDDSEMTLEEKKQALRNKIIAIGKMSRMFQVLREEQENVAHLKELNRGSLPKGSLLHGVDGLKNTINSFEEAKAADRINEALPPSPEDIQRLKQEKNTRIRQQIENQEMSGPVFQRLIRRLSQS
The experiment is described as follows: Fluorescence Cell-Based Secondary Assay to Identify Inhibitors of Calcineurin. [Related pubchem assays (depositor defined):AID1979, AID2007]. The class given is functional.

Experiment [2] concerns the target T1, Serine/threonine-protein phosphatase. The experiment in a line: calcineurin pathway inhibitors in yeast reporter, dose response, S. cerevisiae, CDRE-lacZ, luminescence, secondary (AID 2388).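 Note: yeast reporter cells carrying a calcineurin-responsive lacZ construct stimulated with calcium chloride; luminescent beta-galactosidase reporter signal in whole cells rather than isolated phosphatase activity; potency for inhibition where a drop in reporter signal means calcineurin blockade.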 The class given is functional, cell-based.
Another experiment concerns BJ. The experiment in a line: cytotoxicity toward BJ-TERT-LT-ST fibroblasts, dose response, cell-based, RAS-independent, luminescence (AID 1935).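 Note: BJ fibroblasts immortalized with TERT plus LT and ST oncogenes.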 To be noted: Homo sapiens. It counts as functional.
The target of experiment [3] is Dual specificity tyrosine-phosphorylation-regulated kinase 4 (Homo sapiens, UniProt Q9NR20). It counts as functional.
Experiment [4] addresses cGMP-dependent protein kinase 1 (Homo sapiens, UniProt Q13976). It counts as functional.
Experiment [5] has as its target Megakaryocyte-associated tyrosine-protein kinase (Homo sapiens, UniProt P42679). The class given is functional.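 Note: affinity measured as one member of a kinase panel (Navigating the Kinome) against MATK.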
The target in experiment [6] is MAP kinase-activated protein kinase 3 (Homo sapiens, UniProt Q16644). It counts as functional.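 Note: value comes from a kinome-wide profiling panel in which MAPKAPK3 is one of the panel members.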
The target in experiment [7] is Casein kinase I isoform gamma-1 (Homo sapiens, UniProt Q9HCP0). The class given is functional.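 Note: measured as the CSNK1G1 member of a kinome profiling panel.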
Experiment [8] deals with Mitogen-activated protein kinase 1 (Homo sapiens, UniProt P28482). The class given is functional.
Experiment [9] has as its target Proto-oncogene tyrosine-protein kinase receptor Ret (Homo sapiens, UniProt P07949). The class given is functional.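 Note: measured within a kinome-wide profiling panel, RET as the panel member.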
The target in experiment [10] is MAP/microtubule affinity-regulating kinase 3 (Homo sapiens, UniProt P27448). The class given is functional.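 Note: MARK3 affinity measured as one member of a kinome panel.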
Experiment [11] has as its target Serine/threonine-protein kinase pim-3 (Homo sapiens, UniProt Q86V86). It counts as functional.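 Note: value obtained as one member of a broad kinase panel profiling effort.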
The target of experiment [12] is Calcium/calmodulin-dependent protein kinase type II subunit gamma (Homo sapiens, UniProt Q13555). The class given is functional.
For the next experiment, the target named is Ephrin type-A receptor 2 (Homo sapiens, UniProt P29317). The class given is functional.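 Note: EPHA2 tested as one member of a kinome-wide kinase panel.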
Experiment [13] concerns the target Tyrosine-protein kinase ITK/TSK (Homo sapiens, UniProt Q08881). It counts as functional.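 Note: affinity for ITK measured as one member of a broad kinase panel profiling binding across the kinome.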
In experiment [14] the target is Calcium/calmodulin-dependent protein kinase type II subunit delta (Homo sapiens, UniProt Q13557). It counts as functional.
Sequence of Calcium/calmodulin-dependent protein kinase type II subunit delta (Q13557 whole entry): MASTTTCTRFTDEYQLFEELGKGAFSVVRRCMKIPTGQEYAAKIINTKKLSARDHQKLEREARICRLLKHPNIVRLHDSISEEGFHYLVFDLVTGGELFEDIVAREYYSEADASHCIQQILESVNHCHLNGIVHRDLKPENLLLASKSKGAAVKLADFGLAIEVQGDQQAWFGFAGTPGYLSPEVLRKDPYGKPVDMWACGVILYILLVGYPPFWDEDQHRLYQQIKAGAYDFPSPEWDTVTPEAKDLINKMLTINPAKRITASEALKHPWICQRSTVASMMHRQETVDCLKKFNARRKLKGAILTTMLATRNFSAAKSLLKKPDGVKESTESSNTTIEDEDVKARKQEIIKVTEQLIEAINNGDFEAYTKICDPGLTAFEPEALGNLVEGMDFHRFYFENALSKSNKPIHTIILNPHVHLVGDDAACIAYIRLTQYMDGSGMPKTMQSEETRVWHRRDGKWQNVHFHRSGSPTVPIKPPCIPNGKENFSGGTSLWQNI
Experiment [15] addresses Glycogen synthase kinase-3 alpha (Homo sapiens, UniProt P49840). It counts as functional.
Experiment [16] has as its target Mitogen-activated protein kinase kinase kinase 20 (Homo sapiens, UniProt Q9NYL2). The class given is functional.
Experiment [17] addresses Dual specificity tyrosine-phosphorylation-regulated kinase 1A (Homo sapiens, UniProt Q13627). It counts as functional.
Experiment [18] addresses Casein kinase I isoform delta (Homo sapiens, UniProt P48730). The class given is functional.
Experiment [19] addresses Mitogen-activated protein kinase kinase kinase kinase 5 (Homo sapiens, UniProt Q9Y4K4). The class given is functional.
The target in experiment [20] is Tyrosine-protein kinase JAK3 (Homo sapiens, UniProt P52333). It counts as functional.
Sequence of Tyrosine-protein kinase JAK3 (P52333 whole entry): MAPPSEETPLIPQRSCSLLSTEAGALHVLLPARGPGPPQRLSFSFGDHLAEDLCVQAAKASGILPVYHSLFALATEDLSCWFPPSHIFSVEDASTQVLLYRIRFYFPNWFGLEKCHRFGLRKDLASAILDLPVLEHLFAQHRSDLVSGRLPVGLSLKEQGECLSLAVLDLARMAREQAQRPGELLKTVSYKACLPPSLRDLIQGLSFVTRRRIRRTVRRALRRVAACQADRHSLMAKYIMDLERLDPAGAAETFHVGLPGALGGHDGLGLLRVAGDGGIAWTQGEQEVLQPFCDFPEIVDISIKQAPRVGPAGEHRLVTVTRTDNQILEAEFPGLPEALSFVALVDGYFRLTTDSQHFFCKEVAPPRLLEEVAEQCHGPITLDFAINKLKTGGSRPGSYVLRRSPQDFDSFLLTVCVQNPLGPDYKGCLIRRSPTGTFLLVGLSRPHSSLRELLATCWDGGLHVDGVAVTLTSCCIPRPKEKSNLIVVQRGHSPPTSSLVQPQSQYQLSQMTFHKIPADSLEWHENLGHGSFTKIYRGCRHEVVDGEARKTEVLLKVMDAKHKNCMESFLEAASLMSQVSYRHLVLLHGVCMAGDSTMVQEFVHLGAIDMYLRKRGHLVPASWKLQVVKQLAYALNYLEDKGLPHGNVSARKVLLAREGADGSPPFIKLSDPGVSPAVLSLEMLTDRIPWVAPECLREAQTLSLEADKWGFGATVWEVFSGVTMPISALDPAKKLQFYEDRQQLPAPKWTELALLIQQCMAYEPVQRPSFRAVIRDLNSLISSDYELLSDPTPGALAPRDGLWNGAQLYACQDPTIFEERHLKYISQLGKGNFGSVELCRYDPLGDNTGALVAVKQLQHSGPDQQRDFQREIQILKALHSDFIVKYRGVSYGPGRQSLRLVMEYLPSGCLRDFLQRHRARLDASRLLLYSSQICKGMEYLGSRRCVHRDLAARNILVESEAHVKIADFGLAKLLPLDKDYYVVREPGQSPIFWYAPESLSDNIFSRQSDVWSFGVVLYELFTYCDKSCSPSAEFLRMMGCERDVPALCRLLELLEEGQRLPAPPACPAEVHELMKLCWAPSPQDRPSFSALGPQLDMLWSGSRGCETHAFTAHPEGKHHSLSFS
The target in experiment [21] is Interleukin-1 receptor-associated kinase 1 (Homo sapiens, UniProt P51617). The class given is functional.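 Note: IRAK1 tested as one member of a kinome panel.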
Experiment [22] concerns the target Protein kinase C delta type (Homo sapiens, UniProt Q05655). It counts as functional.
For experiment [23], the target named is Protein kinase C iota type (Homo sapiens, UniProt P41743). The class given is functional.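 Note: measured within a kinome-wide kinase panel, PRKCI as panel member.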
Experiment [24] addresses Testis-specific serine/threonine-protein kinase 1 (Homo sapiens, UniProt Q9BXA7). It counts as functional.
The target of experiment [25] is Serine/threonine-protein kinase pim-2 (Homo sapiens, UniProt Q9P1W9). The class given is functional.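 Note: value comes from a broad kinase panel profiling study in which PIM2 was one of the panel members.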
Sequence of Serine/threonine-protein kinase pim-2 (Q9P1W9 whole entry): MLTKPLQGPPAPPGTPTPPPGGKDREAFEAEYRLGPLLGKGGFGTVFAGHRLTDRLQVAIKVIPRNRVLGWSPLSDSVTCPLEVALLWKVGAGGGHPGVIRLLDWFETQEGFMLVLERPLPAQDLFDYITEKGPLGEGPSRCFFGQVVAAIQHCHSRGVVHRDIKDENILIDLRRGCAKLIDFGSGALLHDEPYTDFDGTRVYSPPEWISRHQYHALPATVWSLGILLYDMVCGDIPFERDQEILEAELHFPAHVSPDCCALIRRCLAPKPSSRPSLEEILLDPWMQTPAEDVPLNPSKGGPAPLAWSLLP
Experiment [26] concerns the target Interleukin-1 receptor-associated kinase 4 (Homo sapiens, UniProt Q9NWZ3). The class given is functional.
The target in experiment [27] is Serine/threonine-protein kinase Chk1 (Homo sapiens, UniProt O14757). The class given is functional.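 Note: measured as one member of a kinome-wide kinase profiling panel.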
Experiment [28] addresses Protein kinase C zeta type (Homo sapiens, UniProt Q05513). The class given is functional.
Experiment [29] addresses Serine/threonine-protein kinase 3 (Homo sapiens, UniProt Q13188). The class given is functional.
In experiment [30] the target is Vascular endothelial growth factor receptor 1 (Homo sapiens, UniProt P17948). The class given is functional.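 Note: measured within a kinome-wide profiling panel, FLT1 as the panel member.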
Experiment [31] deals with Serine/threonine-protein kinase Nek2 (Homo sapiens, UniProt P51955). It counts as functional.
Sequence of Serine/threonine-protein kinase Nek2 (P51955 whole entry): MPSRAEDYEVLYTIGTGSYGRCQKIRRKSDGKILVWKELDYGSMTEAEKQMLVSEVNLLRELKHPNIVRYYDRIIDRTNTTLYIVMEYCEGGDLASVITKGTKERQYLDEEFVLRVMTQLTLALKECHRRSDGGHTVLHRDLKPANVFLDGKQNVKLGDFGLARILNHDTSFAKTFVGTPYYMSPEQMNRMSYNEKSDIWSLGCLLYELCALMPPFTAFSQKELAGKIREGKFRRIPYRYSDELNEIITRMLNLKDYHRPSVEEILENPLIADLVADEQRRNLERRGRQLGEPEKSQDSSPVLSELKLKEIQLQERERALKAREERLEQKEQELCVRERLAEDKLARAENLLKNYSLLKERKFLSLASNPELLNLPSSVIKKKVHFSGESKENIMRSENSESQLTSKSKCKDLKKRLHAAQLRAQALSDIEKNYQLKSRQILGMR
The target of experiment [32] is Tyrosine-protein kinase Lyn (Homo sapiens, UniProt P07948). The class given is functional.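 Note: lyn as one member of a kinase panel.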
Experiment [33] has as its target Serine/threonine-protein kinase PAK 1 (Homo sapiens, UniProt Q13153). The class given is functional.
The target of experiment [34] is Serine/threonine-protein kinase 17A (Homo sapiens, UniProt Q9UEE5). The class given is functional.
Experiment [35] deals with Phosphorylase b kinase gamma catalytic chain, liver/testis isoform (Homo sapiens, UniProt P15735). The class given is functional.

The structures appear in SMILES notation. The source made the active and inactive calls.

What is called EC50 is the concentration needed to bring the measured effect to its halfway point. Broadly, the Ki is a dissociation constant, usually derived from enzyme kinetics or from competition with a known ligand.

Sequence of Serine/threonine-protein kinase PAK 1 (Q13153 whole entry): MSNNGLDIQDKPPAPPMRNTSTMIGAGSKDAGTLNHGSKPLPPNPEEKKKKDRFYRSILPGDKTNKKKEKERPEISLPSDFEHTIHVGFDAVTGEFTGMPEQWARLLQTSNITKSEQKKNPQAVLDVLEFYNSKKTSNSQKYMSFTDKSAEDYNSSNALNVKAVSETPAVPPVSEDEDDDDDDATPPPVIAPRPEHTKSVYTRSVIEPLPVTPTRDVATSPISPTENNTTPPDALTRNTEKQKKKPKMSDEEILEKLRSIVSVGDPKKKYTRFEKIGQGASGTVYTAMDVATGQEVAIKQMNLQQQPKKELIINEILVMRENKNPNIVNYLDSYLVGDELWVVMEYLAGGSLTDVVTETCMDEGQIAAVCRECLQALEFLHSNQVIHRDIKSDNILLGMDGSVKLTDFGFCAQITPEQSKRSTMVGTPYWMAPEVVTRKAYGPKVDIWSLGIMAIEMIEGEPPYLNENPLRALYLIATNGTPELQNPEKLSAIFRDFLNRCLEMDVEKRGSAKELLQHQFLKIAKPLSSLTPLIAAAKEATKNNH
Sequence of Casein kinase I isoform delta (P48730 whole entry, canonical isoform): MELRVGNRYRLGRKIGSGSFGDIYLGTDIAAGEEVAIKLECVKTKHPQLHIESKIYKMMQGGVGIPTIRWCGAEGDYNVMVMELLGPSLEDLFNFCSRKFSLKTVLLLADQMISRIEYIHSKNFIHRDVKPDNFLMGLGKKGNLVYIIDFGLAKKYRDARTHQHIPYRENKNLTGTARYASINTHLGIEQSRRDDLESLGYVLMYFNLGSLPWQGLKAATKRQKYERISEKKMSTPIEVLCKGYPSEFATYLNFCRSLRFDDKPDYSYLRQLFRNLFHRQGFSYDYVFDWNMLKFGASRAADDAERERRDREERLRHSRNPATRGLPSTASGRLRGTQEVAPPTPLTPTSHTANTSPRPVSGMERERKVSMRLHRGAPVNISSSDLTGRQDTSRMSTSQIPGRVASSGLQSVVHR
Sequence of Interleukin-1 receptor-associated kinase 4 (Q9NWZ3 whole entry): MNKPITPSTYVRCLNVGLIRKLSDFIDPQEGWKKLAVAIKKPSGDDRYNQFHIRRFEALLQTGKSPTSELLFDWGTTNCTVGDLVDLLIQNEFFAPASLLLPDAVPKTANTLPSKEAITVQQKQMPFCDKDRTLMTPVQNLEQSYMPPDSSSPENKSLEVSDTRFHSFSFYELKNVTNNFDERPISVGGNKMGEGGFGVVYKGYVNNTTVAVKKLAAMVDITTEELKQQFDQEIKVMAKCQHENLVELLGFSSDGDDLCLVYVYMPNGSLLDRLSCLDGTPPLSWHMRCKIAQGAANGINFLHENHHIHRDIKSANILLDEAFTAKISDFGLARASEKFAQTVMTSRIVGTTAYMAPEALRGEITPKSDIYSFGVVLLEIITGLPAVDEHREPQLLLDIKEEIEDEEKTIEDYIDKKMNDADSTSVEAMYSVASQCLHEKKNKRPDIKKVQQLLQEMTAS
Sequence of Mitogen-activated protein kinase kinase kinase kinase 5 (Q9Y4K4 whole entry): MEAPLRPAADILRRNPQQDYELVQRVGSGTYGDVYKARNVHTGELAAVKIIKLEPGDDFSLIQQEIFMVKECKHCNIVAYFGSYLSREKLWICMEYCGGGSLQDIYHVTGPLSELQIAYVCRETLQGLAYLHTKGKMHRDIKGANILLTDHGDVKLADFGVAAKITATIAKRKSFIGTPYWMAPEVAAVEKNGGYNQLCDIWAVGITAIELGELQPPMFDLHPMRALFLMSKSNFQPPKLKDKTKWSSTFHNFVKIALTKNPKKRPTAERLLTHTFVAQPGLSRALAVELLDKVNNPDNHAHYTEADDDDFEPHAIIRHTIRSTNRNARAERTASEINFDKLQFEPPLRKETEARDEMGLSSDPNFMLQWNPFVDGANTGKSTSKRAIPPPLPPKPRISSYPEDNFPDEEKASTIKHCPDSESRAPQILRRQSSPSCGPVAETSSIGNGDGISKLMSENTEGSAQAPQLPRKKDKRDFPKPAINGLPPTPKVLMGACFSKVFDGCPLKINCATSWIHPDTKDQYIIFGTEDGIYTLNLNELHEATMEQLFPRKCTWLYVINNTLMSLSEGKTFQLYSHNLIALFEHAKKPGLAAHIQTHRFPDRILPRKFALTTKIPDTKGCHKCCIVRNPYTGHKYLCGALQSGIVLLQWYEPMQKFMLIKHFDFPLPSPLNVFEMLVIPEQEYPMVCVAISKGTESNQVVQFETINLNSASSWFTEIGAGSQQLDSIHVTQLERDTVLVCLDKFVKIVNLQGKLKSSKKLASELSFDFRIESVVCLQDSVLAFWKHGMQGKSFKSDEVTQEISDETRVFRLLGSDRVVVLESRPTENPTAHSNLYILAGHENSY
Sequence of Testis-specific serine/threonine-protein kinase 1 (Q9BXA7 whole entry): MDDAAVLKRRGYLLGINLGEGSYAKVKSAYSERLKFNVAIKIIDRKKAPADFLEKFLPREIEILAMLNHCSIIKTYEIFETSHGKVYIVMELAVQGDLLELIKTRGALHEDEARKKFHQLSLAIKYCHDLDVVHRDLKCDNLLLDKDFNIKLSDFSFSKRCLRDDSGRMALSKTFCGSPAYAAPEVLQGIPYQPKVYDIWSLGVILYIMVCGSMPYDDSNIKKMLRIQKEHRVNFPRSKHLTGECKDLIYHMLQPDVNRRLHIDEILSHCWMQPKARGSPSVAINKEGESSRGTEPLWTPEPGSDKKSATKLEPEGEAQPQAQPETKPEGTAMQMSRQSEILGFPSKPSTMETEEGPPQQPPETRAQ

Turning to `COc1ccc(-c2nnc(NC(=O)c3ccc(F)cc3)o2)cc1`, the EC50 in experiment [1] is > 285 µM (inactive); in experiment [2] it was > 180 µM (inactive); with BJ it was > 150 µM (not active).

Take `CCn1c(-c2nonc2N)nc2cnc(Oc3cccc(NC(=O)c4ccc(OCCN5CCOCC5)cc4)c3)cc21` [GSK-269962A]: the Ki in experiment [3] is > 7.94 µM (inactive); in experiment [4], 0.158 µM (active); in experiment [5], > 2 µM (inactive); in experiment [6], > 10 µM (inactive); in experiment [7], > 6.31 µM (inactive); in experiment [8], > 7.94 µM (inactive). Also, the Ki was > 1.26 µM (inactive) in experiment [9]; 1.58 µM (active) in [10]; 1.58 µM (active) in experiment [11]; > 6.31 µM (inactive) in [12]; > 3.16 µM (inactive) at Ephrin type-A receptor 2; > 1.58 µM (inactive) in [13]. The Ki in experiment [14] is > 6.31 µM (inactive); in [15], 0.0501 µM (active); in experiment [16], > 7.94 µM (inactive); in [17], > 6.31 µM (inactive); in experiment [18] it was > 7.94 µM (inactive); in experiment [19], 1.58 µM (active). Further, the Ki in [20] is > 1.58 µM (inactive); in experiment [21], > 7.94 µM (inactive); in experiment [22], 0.00501 µM (active); in [23], 0.0316 µM (active); in experiment [24], 0.0501 µM (active); in experiment [25] it was > 1.58 µM (inactive). In addition, the Ki in experiment [26] is > 10 µM (inactive); in [27], > 7.94 µM (inactive); in [28], 0.0251 µM (active); in experiment [29], > 7.94 µM (inactive); in experiment [30], > 0.398 µM (inactive); in experiment [31], > 10 µM (inactive). The Ki was > 1.58 µM (inactive) in [32], > 10 µM (inactive) in experiment [33], 0.158 µM (active) in experiment [34] and > 5.01 µM (inactive) in [35].

The values above are taken from ChEMBL document CHEMBL1201862, “PubChem BioAssay data set” (2004).
